Results published in US7851474B2, “Dipiperazinyl ketones and related analogues” (Neurogen Corporation, priority 2005, dated 2010).

biological target: T1, chimeric human H3 receptor (Homo sapiens, UniProt Q9Y5N1, E19D); assay: Chimeric human H3 receptor screening GTP binding assay (inhibition of histamine-stimulated GTP-gamma35S binding, Example 8); type: biochemical; conditions: 1 h; Table II, "+" in the column headed Ki; assay of Example 8; read-out: percent inhibition of agonist-induced GTP-gammaS binding to H3
T1 construct: made in house; host or cells: Sf9 insect cells (baculovirus infection); P2 membrane preparation
How it was run: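 Data are percent inhibition of the 1 μM histamine-stimulated GTP-gamma35S (125 pM) binding, after non-specific binding (10 uM GTP-gammaS) is subtracted. Test compound at 4 μM. Incubation was 60 min at room temperature with Sf9 membranes bearing receptor plus G-protein subunits, buffer pH 7.4 with 10 μM GDP, and filtration read-out.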

T1 sequence (Q9Y5N1 with tags, fused parts or gaps E19D): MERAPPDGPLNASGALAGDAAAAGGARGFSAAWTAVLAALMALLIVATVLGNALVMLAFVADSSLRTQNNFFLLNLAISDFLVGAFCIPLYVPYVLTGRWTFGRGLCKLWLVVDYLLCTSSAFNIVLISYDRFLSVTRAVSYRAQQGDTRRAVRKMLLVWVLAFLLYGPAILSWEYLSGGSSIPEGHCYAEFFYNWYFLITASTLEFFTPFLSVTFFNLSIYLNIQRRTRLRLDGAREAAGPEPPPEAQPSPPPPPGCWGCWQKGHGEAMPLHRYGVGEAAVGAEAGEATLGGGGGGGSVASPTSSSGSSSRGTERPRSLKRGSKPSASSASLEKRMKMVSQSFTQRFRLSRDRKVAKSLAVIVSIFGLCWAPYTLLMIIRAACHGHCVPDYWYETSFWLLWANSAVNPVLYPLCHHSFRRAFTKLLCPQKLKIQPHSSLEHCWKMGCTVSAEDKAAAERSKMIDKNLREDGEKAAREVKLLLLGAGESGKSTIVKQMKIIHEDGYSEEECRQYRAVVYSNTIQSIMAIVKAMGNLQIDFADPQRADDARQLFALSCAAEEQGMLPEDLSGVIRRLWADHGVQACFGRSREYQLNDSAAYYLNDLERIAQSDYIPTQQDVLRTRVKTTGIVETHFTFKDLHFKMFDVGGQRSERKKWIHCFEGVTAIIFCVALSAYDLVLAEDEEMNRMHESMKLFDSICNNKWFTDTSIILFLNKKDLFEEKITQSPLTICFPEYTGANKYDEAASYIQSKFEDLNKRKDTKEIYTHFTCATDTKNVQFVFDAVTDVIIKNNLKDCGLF

Structure (SMILES) | inhibition at 4 µM [%]
Cc1ccc(Oc2ncccc2C(=O)N2CCN(CC(=O)N3CCN(C4CCC4)CC3)CC2)c(C)c1 [Compound 617, 1-cyclobutyl-4-[(4-{[2-(2,4-dimethylphenoxy)pyridin-3-yl]carbonyl}piperazin-1-yl)acetyl]piperazine] | > 90
CCSc1ncccc1C(=O)N1CCN(CC(=O)N2CCN(C3CCC3)CC2)CC1 [Compound 618, 1-cyclobutyl-4-[(4-{[2-(ethylthio)pyridin-3-yl]carbonyl}piperazin-1-yl)acetyl]piperazine] | > 90
CSc1ncccc1C(=O)N1CCN(CC(=O)N2CCN(C3CCC3)CC2)CC1 [Compound 619] | > 90
O=C(CN1CCN(C(=O)c2cccnc2Sc2ccccc2)CC1)N1CCN(C2CCC2)CC1 [Compound 620, 1-cyclobutyl-4-[(4-{[2-(phenylthio)pyridin-3-yl]carbonyl}piperazin-1-yl)acetyl]piperazine] | > 90
O=C(Cc1ccccc1OC(F)(F)F)N1CCN(CC(=O)N2CCN(C3CCC3)CC2)CC1 [Compound 621, 1-cyclobutyl-4-[(4-{[2-(trifluoromethoxy)phenyl]acetyl}piperazin-1-yl)acetyl]piperazine] | > 90
O=C(Cc1ccccc1C(F)(F)F)N1CCN(CC(=O)N2CCN(C3CCC3)CC2)CC1 [Compound 622, 1-cyclobutyl-4-[(4-{[2-(trifluoromethyl)phenyl]acetyl}piperazin-1-yl)acetyl]piperazine] | > 90
O=C(Cc1cccc(C(F)(F)F)c1F)N1CCN(CC(=O)N2CCN(C3CCC3)CC2)CC1 [Compound 623, 1-cyclobutyl-4-[(4-{[2-fluoro-3-(trifluoromethyl)phenyl]acetyl}piperazin-1-yl)acetyl]piperazine] | > 90
Cc1onc(-c2c(Cl)cccc2Cl)c1C(=O)N1CCN(CC(=O)N2CCN(C3CCC3)CC2)CC1 [Compound 624, 1-cyclobutyl-4-[(4-{[3-(2,6-dichlorophenyl)-5-methylisoxazol-4-yl]carbonyl}piperazin-1-yl)acetyl]piperazine] | > 90
CSc1sc(C(=O)N2CCN(CC(=O)N3CCN(C4CCC4)CC3)CC2)c2c1C=CCC2 [Compound 625, 1-cyclobutyl-4-[(4-{[3-(methylthio)-6,7-dihydro-2-benzothien-1-yl]carbonyl}piperazin-1-yl)acetyl]piperazine] | > 90
O=C(Cc1cccc(OC(F)(F)F)c1)N1CCN(CC(=O)N2CCN(C3CCC3)CC2)CC1 [Compound 626, 1-cyclobutyl-4-[(4-{[3-(trifluoromethoxy)phenyl]acetyl}piperazin-1-yl)acetyl]piperazine] | > 90
O=C(Cc1cccc(C(F)(F)F)c1)N1CCN(CC(=O)N2CCN(C3CCC3)CC2)CC1 [Compound 627, 1-cyclobutyl-4-[(4-{[3-(trifluoromethyl)phenyl]acetyl}piperazin-1-yl)acetyl]piperazine] | > 90
CSc1ccc(CC(=O)N2CCN(CC(=O)N3CCN(C4CCC4)CC3)CC2)cc1 [Compound 628, 1-cyclobutyl-4-[(4-{[4-(methylthio)phenyl]acetyl}piperazin-1-yl)acetyl]piperazine] | > 90
O=C(COc1ccc(OC(F)(F)F)cc1)N1CCN(CC(=O)N2CCN(C3CCC3)CC2)CC1 [Compound 629, 1-cyclobutyl-4-[(4-{[4-(trifluoromethoxy)phenoxy]acetyl}piperazin-1-yl)acetyl]piperazine] | > 90
O=C(Cc1ccc(OC(F)(F)F)cc1)N1CCN(CC(=O)N2CCN(C3CCC3)CC2)CC1 [Compound 630, 1-cyclobutyl-4-[(4-{[4-(trifluoromethoxy)phenyl]acetyl}piperazin-1-yl)acetyl]piperazine] | > 90
O=C(Cc1ccc(C(F)(F)F)cc1)N1CCN(CC(=O)N2CCN(C3CCC3)CC2)CC1 [Compound 631, 1-cyclobutyl-4-[(4-{[4-(trifluoromethyl)phenyl]acetyl}piperazin-1-yl)acetyl]piperazine] | > 90
O=C(CN1CCN(C(=O)c2cnccc2C(F)(F)F)CC1)N1CCN(C2CCC2)CC1 [Compound 632, 1-cyclobutyl-4-[(4-{[4-(trifluoromethyl)pyridin-3-yl]carbonyl}piperazin-1-yl)acetyl]piperazine] | > 90
CSc1ccc(C(=O)N2CCN(CC(=O)N3CCN(C4CCC4)CC3)CC2)s1 [Compound 633, 1-cyclobutyl-4-[(4-{[5-(methylthio)-2-thienyl]carbonyl}piperazin-1-yl)acetyl]piperazine] | > 90
O=C(CN1CCN(C(=O)c2cncc(C#Cc3ccccc3)c2)CC1)N1CCN(C2CCC2)CC1 [Compound 634, 1-cyclobutyl-4-[(4-{[5-(phenylethynyl)pyridin-3-yl]carbonyl}piperazin-1-yl)acetyl]piperazine] | > 90
O=C(CN1CCN(C(=O)c2ccc(-n3cccc3)nc2)CC1)N1CCN(C2CCC2)CC1 [Compound 635, 1-cyclobutyl-4-[(4-{[6-(1H-pyrrol-1-yl)pyridin-3-yl]carbonyl}piperazin-1-yl)acetyl]piperazine] | > 90
O=C(CN1CCN(C(=O)c2ccc(OCC(F)(F)F)nc2)CC1)N1CCN(C2CCC2)CC1 [Compound 636, 1-cyclobutyl-4-[(4-{[6-(2,2,2-trifluoroethoxy)pyridin-3-yl]carbonyl}piperazin-1-yl)acetyl]piperazine] | > 90
CC(Oc1ccc(OC(F)(F)F)cc1)C(=O)N1CCN(CC(=O)N2CCN(C3CCC3)CC2)CC1 (stereo not shown) [Compound 637, 1-cyclobutyl-4-[(4-{2-[4-(trifluoromethoxy)phenoxy]propanoyl}piperazin-1-yl)acetyl]piperazine] | > 90
O=C(CN1CCN(C(=O)c2ccncc2)CC1)N1CCN(C2CCC2)CC1 [Compound 655, 1-cyclobutyl-4-[(4-isonicotinoylpiperazin-1-yl)acetyl]piperazine] | > 90
O=C(Cc1cccc2ccccc12)N1CCN(CC(=O)N2CCN(C3CCC3)CC2)CC1 [Compound 663, 1-cyclobutyl-4-{[4-(1-naphthylacetyl)piperazin-1-yl]acetyl}piperazine] | > 90

Next, values leading:

inhibition at 4 µM [%] | Structure (SMILES)
> 90 | COc1ccc(OC)c(Sc2ncccc2C(=O)N2CCN(CC(=O)N3CCN(C4CCC4)CC3)CC2)c1 [Compound 659, 1-cyclobutyl-4-{[4-({2-[(2,5-dimethoxyphenyl)thio]pyridin-3-yl}carbonyl)piperazin-1-yl]acetyl}piperazine]
> 90 | Cc1nc(-c2ccc(C(F)(F)F)cc2)sc1C(=O)N1CCN(CC(=O)N2CCN(C3CCC3)CC2)CC1 [Compound 660, 1-cyclobutyl-4-{[4-({4-methyl-2-[4-(trifluoromethyl)phenyl]-1,3-thiazol-5-yl}carbonyl)piperazin-1-yl]acetyl}piperazine]
> 90 | Cn1nc(C(F)(F)F)cc1-c1ccc(C(=O)N2CCN(CC(=O)N3CCN(C4CCC4)CC3)CC2)s1 [Compound 661, 1-cyclobutyl-4-{[4-({5-[1-methyl-3-(trifluoromethyl)-1H-pyrazol-5-yl]-2-thienyl}carbonyl)piperazin-1-yl]acetyl}piperazine]
> 90 | O=C(CN1CCN(C(=O)c2cccc3ccccc23)CC1)N1CCN(C2CCC2)CC1 [Compound 662, 1-cyclobutyl-4-{[4-(1-naphthoyl)piperazin-1-yl]acetyl}piperazine]
> 90 | O=C(CN1CCN(C(=O)c2cccc(Cl)c2Cl)CC1)N1CCN(C2CCC2)CC1 [Compound 664, 1-cyclobutyl-4-{[4-(2,3-dichlorobenzoyl)piperazin-1-yl]acetyl}piperazine]
> 90 | O=C(CN1CCN(C(=O)C2COc3ccccc3O2)CC1)N1CCN(C2CCC2)CC1 (stereo not shown) [Compound 668, 1-cyclobutyl-4-{[4-(2,3-dihydro-1,4-benzodioxin-2-ylcarbonyl)piperazin-1-yl]acetyl}piperazine]
> 90 | O=C(CN1CCN(C(=O)c2ccc3c(c2)CCO3)CC1)N1CCN(C2CCC2)CC1 [Compound 669, 1-cyclobutyl-4-{[4-(2,3-dihydro-1-benzofuran-5-ylcarbonyl)piperazin-1-yl]acetyl}piperazine]
> 90 | COc1cccc(C(=O)N2CCN(CC(=O)N3CCN(C4CCC4)CC3)CC2)c1OC [Compound 670, 1-cyclobutyl-4-{[4-(2,3-dimethoxybenzoyl)piperazin-1-yl]acetyl}piperazine]
> 90 | Cc1cccc(C(=O)N2CCN(CC(=O)N3CCN(C4CCC4)CC3)CC2)c1C [Compound 671, 1-cyclobutyl-4-{[4-(2,3-dimethylbenzoyl)piperazin-1-yl]acetyl}piperazine]
> 90 | O=C(CN1CCN(C(=O)c2ccc(Cl)cc2Cl)CC1)N1CCN(C2CCC2)CC1 [Compound 674, 1-cyclobutyl-4-{[4-(2,4-dichlorobenzoyl)piperazin-1-yl]acetyl}piperazine]
> 90 | COc1ccc(C(=O)N2CCN(CC(=O)N3CCN(C4CCC4)CC3)CC2)c(OC)c1 [Compound 677, 1-cyclobutyl-4-{[4-(2,4-dimethoxybenzoyl)piperazin-1-yl]acetyl}piperazine]
> 90 | Cc1ccc(C(=O)N2CCN(CC(=O)N3CCN(C4CCC4)CC3)CC2)c(C)c1 [Compound 679, 1-cyclobutyl-4-{[4-(2,4-dimethylbenzoyl)piperazin-1-yl]acetyl}piperazine]
> 90 | O=C(CN1CCN(C(=O)c2cc(Cl)ccc2Cl)CC1)N1CCN(C2CCC2)CC1 [Compound 681, 1-cyclobutyl-4-{[4-(2,5-dichlorobenzoyl)piperazin-1-yl]acetyl}piperazine]
> 90 | O=C(CN1CCN(C(=O)c2cc(F)ccc2F)CC1)N1CCN(C2CCC2)CC1 [Compound 684, 1-cyclobutyl-4-{[4-(2,5-difluorobenzoyl)piperazin-1-yl]acetyl}piperazine]
